Measured values as given in patent US20140329814A2, “Compositions for Treatment of Cystic Fibrosis and Other Chronic Diseases” (Vertex Pharmaceuticals Incorporated, priority 2010, published 2014).
Where a name gives a salt, the structure may show the parent alone.

Molecular target: T1, ΔF508-CFTR (Homo sapiens, UniProt P13569, DEL508-508)
T1 construct: expressed in transfected cells
Assay: Membrane potential optical (FRET/VIPR) assay, identification of potentiator compounds, NIH3T3 cells expressing ΔF508-CFTR
Format: cell-based
Details: Table II.A-4; EC50 of certain embodiments
Text: I) Membrane Potential Optical Methods for Assaying ΔF508-CFTR Modulation Properties of Compounds
The optical membrane potential assay utilized voltage-sensitive FRET sensors described by Gonzalez and Tsien (See, Gonzalez, J. E. and R. Y. Tsien (1995) “Voltage sensing by fluorescence resonance energy transfer in single cells” Biophys J 69(4): 1272-80, and Gonzalez, J. E. and R. Y. Tsien (1997) “Improved indicators of cell membrane potential that use fluorescence resonance energy transfer” Chem Biol 4(4): 269-77) in combination with instrumentation for measuring fluorescence changes such as the Voltage/Ion Probe Reader (VIPR) (See, Gonzalez, J. E., K. Oades, et al. (1999) “Cell-based assays and instrumentation for screening ion-channel targets” Drug Discov Today 4(9): 431-439).
These voltage sensitive assays are based on the change in fluorescence resonant energy transfer (FRET) between the membrane-soluble, voltage-sensitive dye, DiSBAC2(3), and a fluorescent phospholipid, CC2-DMPE, which is attached to the outer leaflet of the plasma membrane and acts as a FRET donor. Changes in membrane potential (Vm) cause the negatively charged DiSBAC2(3) to redistribute across the plasma membrane and the amount of energy transfer from CC2-DMPE changes accordingly. The changes in fluorescence emission were monitored using VIPR™ II, which is an integrated liquid handler and fluorescent detector designed to conduct cell-based screens in 96- or 384-well microtiter plates.
To identify potentiators of ΔF508-CFTR, a double-addition HTS assay format was developed. During the first addition, a Cl^−-free medium with or without test compound was added to each well. After 22 sec, a second addition of Cl^−-free medium containing 2-10 μM forskolin was added to activate ΔF508-CFTR. The extracellular Cl^− concentration following both additions was 28 mM, which promoted Cl^− efflux in response to ΔF508-CFTR activation and the resulting membrane depolarization was optically monitored using the FRET-based voltage-sensor dyes. Solutions
Bath Solution #1: (in mM) NaCl 160, KCl 4.5, CaCl2 2, MgCl2 1, HEPES 10, pH 7.4 with NaOH. Chloride-free bath solution: Chloride salts in Bath Solution #1 are substituted with gluconate salts. CC2-DMPE: Prepared as a 10 mM stock solution in DMSO and stored at −20° C. DiSBAC2(3): Prepared as a 10 mM stock in DMSO and stored at −20° C.
NIH3T3 mouse fibroblasts stably expressing ΔF508-CFTR are used for optical measurements of membrane potential. The cells are maintained at 37° C. in 5% CO2 and 90% humidity in Dulbecco's modified Eagle's medium supplemented with 2 mM glutamine, 10% fetal bovine serum, 1× NEAA, β-ME, 1× pen/strep, and 25 mM HEPES in 175 cm^2 culture flasks. […]

T1 sequence (P13569 with tags, fused parts or gaps DEL508-508): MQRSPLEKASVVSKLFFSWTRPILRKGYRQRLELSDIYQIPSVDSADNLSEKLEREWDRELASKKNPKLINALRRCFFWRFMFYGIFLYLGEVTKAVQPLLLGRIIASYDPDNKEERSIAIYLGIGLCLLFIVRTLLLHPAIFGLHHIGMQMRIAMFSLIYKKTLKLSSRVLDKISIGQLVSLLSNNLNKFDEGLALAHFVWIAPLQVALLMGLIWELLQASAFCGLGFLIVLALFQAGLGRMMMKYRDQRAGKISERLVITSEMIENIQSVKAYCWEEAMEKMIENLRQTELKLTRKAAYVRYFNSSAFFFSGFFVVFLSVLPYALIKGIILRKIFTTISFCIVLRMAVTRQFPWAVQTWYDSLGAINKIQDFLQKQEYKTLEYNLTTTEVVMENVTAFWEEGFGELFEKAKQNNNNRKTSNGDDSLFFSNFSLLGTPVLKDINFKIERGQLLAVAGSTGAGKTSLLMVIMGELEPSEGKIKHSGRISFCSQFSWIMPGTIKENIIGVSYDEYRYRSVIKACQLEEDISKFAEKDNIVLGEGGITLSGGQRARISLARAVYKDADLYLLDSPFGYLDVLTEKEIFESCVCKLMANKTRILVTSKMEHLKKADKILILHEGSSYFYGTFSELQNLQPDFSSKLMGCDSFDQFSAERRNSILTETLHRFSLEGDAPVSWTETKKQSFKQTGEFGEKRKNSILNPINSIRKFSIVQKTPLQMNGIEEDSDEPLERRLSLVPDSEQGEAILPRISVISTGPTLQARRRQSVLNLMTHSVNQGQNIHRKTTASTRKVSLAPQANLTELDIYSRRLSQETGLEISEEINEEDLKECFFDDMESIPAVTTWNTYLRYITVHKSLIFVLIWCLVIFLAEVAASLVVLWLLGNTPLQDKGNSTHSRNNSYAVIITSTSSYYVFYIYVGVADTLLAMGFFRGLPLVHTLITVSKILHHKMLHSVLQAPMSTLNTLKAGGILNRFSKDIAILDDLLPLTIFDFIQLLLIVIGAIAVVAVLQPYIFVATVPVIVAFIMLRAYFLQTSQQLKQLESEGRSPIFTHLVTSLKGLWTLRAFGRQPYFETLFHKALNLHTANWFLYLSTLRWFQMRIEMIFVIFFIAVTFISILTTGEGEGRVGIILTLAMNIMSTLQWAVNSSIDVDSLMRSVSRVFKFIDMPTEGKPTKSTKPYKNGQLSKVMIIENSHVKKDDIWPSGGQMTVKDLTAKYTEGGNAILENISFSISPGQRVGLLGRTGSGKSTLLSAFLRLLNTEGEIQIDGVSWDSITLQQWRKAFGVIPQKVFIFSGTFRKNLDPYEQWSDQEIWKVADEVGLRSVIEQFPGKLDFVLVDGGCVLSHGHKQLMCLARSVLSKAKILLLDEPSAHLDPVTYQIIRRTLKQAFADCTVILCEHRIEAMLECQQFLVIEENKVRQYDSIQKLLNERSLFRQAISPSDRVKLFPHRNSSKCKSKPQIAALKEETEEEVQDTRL

EC50	SMILES
< 10 µM	CC(C)(C)OC(=O)NCC(C)(C)c1ccc(NC(=O)c2c[nH]c3ccccc3c2=O)cc1 [compound 88, [2-methyl-2-[4-[(4-oxo-1H-quinolin-3-yl)carbonylamino]phenyl]-propyl]aminoformic acid tert-butyl ester]
10 to 25 µM	O=C(Nc1ccccc1Oc1ccccc1)c1c[nH]c2ccccc2c1=O [compound 413, 4-oxo-N-(2-phenoxyphenyl)-1H-quinoline-3-carboxamide]
< 10 µM	Nc1cccc(NC(=O)c2c[nH]c3ccccc3c2=O)c1 [compound 431, N-(3-aminophenyl)-4-oxo-1H-quinoline-3-carboxamide]
< 10 µM	O=C(Nc1ccc(N2CCOCC2)cc1)c1c[nH]c2ccccc2c1=O [compound 457, N-(4-morpholinophenyl)-4-oxo-1H-quinoline-3-carboxamide]

Molecular target: T2, epithelial sodium channel (ENaC) (Homo sapiens, UniProt P37088+P51168+P51170)
T2 construct: host or cells: primary human bronchial epithelial cells (HBECs), air-liquid interface culture
T2 sequence (P37088 1-669): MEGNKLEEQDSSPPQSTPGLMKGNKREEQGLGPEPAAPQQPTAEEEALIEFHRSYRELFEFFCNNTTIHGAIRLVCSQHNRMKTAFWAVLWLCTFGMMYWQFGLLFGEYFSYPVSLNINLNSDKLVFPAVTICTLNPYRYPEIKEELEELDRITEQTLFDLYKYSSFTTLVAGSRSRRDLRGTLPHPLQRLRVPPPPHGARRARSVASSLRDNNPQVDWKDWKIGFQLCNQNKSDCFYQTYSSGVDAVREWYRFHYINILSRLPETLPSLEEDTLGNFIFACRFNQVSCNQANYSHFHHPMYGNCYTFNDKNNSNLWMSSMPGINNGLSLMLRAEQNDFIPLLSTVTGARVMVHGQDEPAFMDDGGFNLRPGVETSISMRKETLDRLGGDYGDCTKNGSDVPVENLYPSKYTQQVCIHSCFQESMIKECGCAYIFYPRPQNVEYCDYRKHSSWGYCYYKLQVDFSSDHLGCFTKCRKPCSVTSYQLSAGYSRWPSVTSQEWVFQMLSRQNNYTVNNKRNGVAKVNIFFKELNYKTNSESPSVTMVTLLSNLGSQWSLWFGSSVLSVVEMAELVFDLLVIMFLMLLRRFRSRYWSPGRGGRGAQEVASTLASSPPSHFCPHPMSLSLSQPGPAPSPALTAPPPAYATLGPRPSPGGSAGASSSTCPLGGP
T2 sequence (P51168 1-640): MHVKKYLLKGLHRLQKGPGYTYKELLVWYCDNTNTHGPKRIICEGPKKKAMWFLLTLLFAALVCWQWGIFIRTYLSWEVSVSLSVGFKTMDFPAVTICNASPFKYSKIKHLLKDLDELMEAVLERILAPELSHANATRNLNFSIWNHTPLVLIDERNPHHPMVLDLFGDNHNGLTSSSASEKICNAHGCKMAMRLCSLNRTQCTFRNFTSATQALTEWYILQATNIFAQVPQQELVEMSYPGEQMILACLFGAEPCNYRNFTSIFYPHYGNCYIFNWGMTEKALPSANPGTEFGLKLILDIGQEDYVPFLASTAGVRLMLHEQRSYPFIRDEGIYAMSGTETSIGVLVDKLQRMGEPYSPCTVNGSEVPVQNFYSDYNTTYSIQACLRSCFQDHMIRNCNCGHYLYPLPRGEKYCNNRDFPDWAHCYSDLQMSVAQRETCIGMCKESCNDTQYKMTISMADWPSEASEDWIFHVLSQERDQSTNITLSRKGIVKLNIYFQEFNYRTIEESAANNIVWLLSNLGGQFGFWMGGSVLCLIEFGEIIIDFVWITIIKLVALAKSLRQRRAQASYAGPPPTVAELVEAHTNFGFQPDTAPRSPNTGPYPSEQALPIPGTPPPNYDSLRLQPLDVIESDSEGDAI
T2 sequence (P51170 1-649): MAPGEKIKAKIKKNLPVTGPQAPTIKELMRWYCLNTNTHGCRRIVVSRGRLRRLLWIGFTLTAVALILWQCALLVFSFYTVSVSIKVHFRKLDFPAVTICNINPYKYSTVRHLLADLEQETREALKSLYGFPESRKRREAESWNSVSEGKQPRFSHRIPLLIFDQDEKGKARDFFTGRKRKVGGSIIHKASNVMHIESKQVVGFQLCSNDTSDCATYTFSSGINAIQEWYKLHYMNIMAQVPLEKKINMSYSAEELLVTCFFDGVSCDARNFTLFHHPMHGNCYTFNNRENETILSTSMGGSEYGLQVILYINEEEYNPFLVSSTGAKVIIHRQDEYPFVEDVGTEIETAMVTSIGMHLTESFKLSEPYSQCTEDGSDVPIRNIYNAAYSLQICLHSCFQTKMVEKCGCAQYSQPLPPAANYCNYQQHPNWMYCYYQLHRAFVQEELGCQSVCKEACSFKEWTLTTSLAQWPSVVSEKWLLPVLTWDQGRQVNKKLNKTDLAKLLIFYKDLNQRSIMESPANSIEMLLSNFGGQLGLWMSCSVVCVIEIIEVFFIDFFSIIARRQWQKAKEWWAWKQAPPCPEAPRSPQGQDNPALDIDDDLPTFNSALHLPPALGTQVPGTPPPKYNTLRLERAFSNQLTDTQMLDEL
Assay: Short circuit current (ISC) measurements in human bronchial epithelial cells, inhibition of amiloride-sensitive ISC
Format: cell-based
Details: inhibition of the amiloride-sensitive ISC, HBECs at air-liquid interface, compound added to apical chamber
Protocol: Compounds of Formula E and their pharmaceutically acceptable salts, hereinafter referred to alternatively as “illustrative ENaC inhibitors of the invention”, are useful as pharmaceuticals. In particular, the compounds have good ENaC blocker activity and may be tested in the following assays.
Human Bronchial Epithelial cells (HBECs) (Cambrex) were cultured under air-liquid interface conditions to provide a well differentiated mucociliary phenotype.
HBECs were cultured using a modification of the method described by Gray and colleagues (Gray et al., 1996). […]
Snapwell inserts were mounted in Vertical Diffusion Chambers (Costar) and were bathed with continuously gassed Ringer solution (5% CO2 in O2; pH 7.4) maintained at 37° C. containing (in mM): 120 NaCl, 25 NaHCO3, 3.3 KH2PO4, 0.8 K2HPO4, 1.2 CaCl2, 1.2 MgCl2, and 10 glucose. […] RT was measured by applying a 1- or 2-mV pulse at 30-s intervals and calculating RT by Ohm's law. Data were recorded using a PowerLab workstation (ADInstruments).
Test compounds were prepared as a 10 mM stock solution in DMSO (95%). […] At the completion of the concentration-response experiment, amiloride (10 μM) was added into the apical chamber to enable the total amiloride-sensitive current to be measured. […]
Results are expressed as the mean % inhibition of the amiloride-sensitive ISC. […]

IC50	SMILES
0.005 µM	CCCC1N/C(=N/C(=O)c2nc(Cl)c(N)nc2N)NC1CCCc1ccc(OCC(O)CO)cc1 (stereo in doubt) [Example 29, (E)-3,5-diamino-6-chloro-N-(4-(3-(4-((S)-2,3-dihydroxypropoxy)phenyl)propyl)-5-propylimidazolidin-2-ylidene)pyrazine-2-carboxamide hydrochloride]
0.0119 µM	Cc1oc(-c2ccccc2)nc1COc1ccc(S(=O)(=O)N2CCC3(CC2)CN/C(=N\C(=O)c2nc(Cl)c(N)nc2N)N3)cc1 [Example 238, 3,5-Diamino-6-chloro-pyrazine-2-carboxylic acid [8-[4-(5-methyl-2-phenyl-oxazol-4-ylmethoxy)-benzenesulfonyl]-1,3,8-triaza-spiro[4.5]dec-(2E)-ylidene]-amide]
